Measured values from EP2924037A1, “QUINAZOLINE DERIVATE AND USE THEREOF AS APOPTOSIS INHIBITOR” (Linx Pharmaceutical Co., Ltd., priority 2012, dated 2013).
Where two headings read alike, the source gives them in different places.

What was measured:
[1] = test system: sepsis models (LPS; Cecal Ligation and Puncture); assay: Effects against sepsis (LPS and CLP models), 7-day survival; format: in vivo, BALB/C mice; conditions: i.p. once a day for 3 days at 0.4 mg/kg; 7-day period; P < 0.05 compared to negative controls
Protocol: After 1.5 hours, compounds were injected (i.p.) at a predetermined concentration. Mouse survival was examined every 12 hours for 7 days. Statistical significance of the difference in the survival rates was analyzed.
Another model is Cecal Ligation and Puncture (CLP) model of sepsis. Mice were anesthetized. A 1.5-2.0 cm long abdominal midline incision was made and the cecum was exposed. After ligation 5 mm from the cecal tip, the cecum was punctured once with a 22-gauge needle, and some stool was squeezed out. Then the cecum was put back into the abdomen and the abdomen was closed by running suture. After 1.5 hours, compounds were injected (i.p.) at a predetermined concentration. Mouse survival was examined every 12 hours for 7 days. Statistical significance of the difference in the survival rates was analyzed.
These compounds were individually injected (i.p.) once a day for 3 days at 0.4 mg/kg.

pgk1 = target: T1, pgk1 (Mus musculus, UniProt P09411); assay: Activity assay of pgk1 (GAPDH-coupled, absorbance at 340 nm); format: biochemical
T1 construct: His; made in house; host or cells: E. coli
T1 sequence (P09411 1-417): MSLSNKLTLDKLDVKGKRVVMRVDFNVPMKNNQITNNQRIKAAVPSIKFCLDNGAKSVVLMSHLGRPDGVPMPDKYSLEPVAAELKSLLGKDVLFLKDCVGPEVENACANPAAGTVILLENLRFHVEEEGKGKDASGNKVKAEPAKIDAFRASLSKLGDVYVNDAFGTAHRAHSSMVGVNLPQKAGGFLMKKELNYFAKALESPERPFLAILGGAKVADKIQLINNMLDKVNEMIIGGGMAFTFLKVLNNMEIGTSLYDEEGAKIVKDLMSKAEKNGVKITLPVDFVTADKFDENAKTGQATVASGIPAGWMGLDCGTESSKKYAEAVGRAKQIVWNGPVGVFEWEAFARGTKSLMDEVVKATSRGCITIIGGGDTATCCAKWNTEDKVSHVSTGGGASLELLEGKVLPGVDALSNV
Protocol: The recombinant mouse pgk1 protein (His-pgk1) was expressed in the E. Coli. The protein was purified by a Nickel column. The proteins were diluted to 0.15 unit /mL. Then, different concentrations of terazosin were added to determine the pgk1 activity.
According to the components of Colorimetric GAPDH Assay Kit (ScienCells), the reaction solution was prepared with solutions of GAPDH, HEPES, and MgSO4. A predetermined concentration of the compound of Formula I was added to the reaction solution (30 mM Hepes, 3 mM ATP, 0.22 mM NADH, 10 mM MgSO4, 10 mM 3-PGA, 3-4 U/ml GAPDH, pH 7.5). Absorbance was measured at 25 °C with a spectroscope (340 nm). Relative activity of pgk1 was calculated based on the changes of absorbance value within 1-10 minutes. The activity has a positive correlation with the changes of absorbance value. The absorbance of the same compound at 340 nm was subtracted in the test group.

[2] = Effect on serum glucose in mice; format: in vivo; conditions: Mus musculus, ip; 0.4 mg/kg i.p. once, measured 18 hours later; t-test P<0.01 for terazosin; read-out: reduction of the serum glucose level
Protocol: Mice were injected terazosin (0.4 mg/kg i.p.) once. The serum glucose level of the mice was measured 18 hours later. […] By the same method, exemplary compounds Co.1, Co.3, Co.7, Co.9, Co.13, Co.16, Co.19, Co.24, Co.27 and Co.32 as described in the present invention were all shown to be effective to reduce the serum glucose level by 20% to 50%.

cerebral thrombosis = assay: Mouse model of cerebral thrombosis, infarct volume; format: in vivo; conditions: 0.4 mg/kg i.p.; 6 mice per condition; t-test P<0.05
Protocol: In a mouse model of cerebral thrombosis, the mouse brains were stained after death from thrombosis. […] The statistical analysis was performed based on % infarct volume = white area/total area, 6 mice were tested for each condition. t-test, P<0.05.

E. Coli O111:B4 = assay: Oxford Cup test of antibiotic activity; format: cell-based; conditions: after 24 hrs; terazosin 0.2µg, 2µg, 200µg, 2mg; ampicillin 2mg
Protocol: The antibiotic activity of terazosin was measured by Oxford Cup test. Oxford Cups containing different concentrations of terazosin were placed in the petri dish wherein E. Coli O111:B4 was cultured on LB medium. The effects of terazosin and ampicillin on the growth of E. Coli were examined after 24 hrs.

[3] = 0.02 µg/ml, read-out: activation of pgk1 represented by fold changes
[4] = read-out: Activity* (the times of pgk1 activity induced by 0.02µg/ml of the tested compound)

| Compound | fold induction at 0.02 µg/mL (pgk1; [4]) | inhibition in vivo at 0.4 mg/kg [2] | infarct volume (% infarct volume = white area/total area) (cerebral thrombosis) | further results |
| --- | --- | --- | --- | --- |
| COc1cc2nc(N3CCN(C(=O)C4CCCO4)CC3)nc(NC(C)=O)c2cc1OC (stereo not shown) [Co.1] | 2.9 | 20 to 50% | effective to reduce the infarct volume | survival against sepsis [1]: significantly increased survival against sepsis; fold induction at 0.02 µg/mL (pgk1; [3]): 2.9 |
| COc1cc2nc(N3CCN(C(=O)C4CCCO4)CC3)nc(NCCOCCO)c2cc1OC (stereo not shown) [Co.2] | 2.3 | – | – | fold induction at 0.02 µg/mL (pgk1; [3]): 2.3 |
| COc1cc2nc(N3CCN(C(=O)C4CCCO4)CC3)nc(NN)c2cc1OC (stereo not shown) [Co.3] | 1.9 | 20 to 50% | – | – |
| COc1cc2nc(N3CCN(C(=O)C4CCCO4)CC3)nc(NO)c2cc1OC (stereo not shown) [Co.4] | 3.4 | – | effective to reduce the infarct volume | survival against sepsis [1]: significantly increased survival against sepsis |
| C=CCNc1nc(N2CCN(C(=O)C3CCCO3)CC2)nc2cc(OC)c(OC)cc12 (stereo not shown) [Co.5] | 1.5 | – | – | – |
| CCCCCCNc1nc(N2CCN(C(=O)C3CCCO3)CC2)nc2cc(OC)c(OC)cc12 (stereo not shown) [Co.7] | 2.1 | 20 to 50% | effective to reduce the infarct volume | – |
| COc1cc2nc(N3CCN(C(=O)C4CCCO4)CC3)nc(NCCCCC(F)(F)F)c2cc1OC (stereo not shown) [Co.8] | 0.9 | – | effective to reduce the infarct volume | – |
| COc1cc2nc(N3CCN(C(=O)C4CCCO4)CC3)nc(NC3CCCCC3)c2cc1OC (stereo not shown) [Co.9] | 1.4 | 20 to 50% | – | survival against sepsis [1]: significantly increased survival against sepsis |
| COc1cc2nc(N3CCN(C(=O)C4CCCO4)CC3)nc(N3CCCCC3)c2cc1OC (stereo not shown) [Co.10] | 0.7 | – | – | – |
| COc1cc2nc(N3CCN(C(=O)C4CCCO4)CC3)nc(NC(=O)C(F)(F)F)c2cc1OC (stereo not shown) [Co.13] | 1.8 | 20 to 50% | effective to reduce the infarct volume | survival against sepsis [1]: significantly increased survival against sepsis |
| COc1cc2c(N)nc(N3CCN(C(=O)C4CCCO4)CC3)nc2cc1OC(C)=O (stereo not shown) [Co.17] | 1.1 | – | – | – |
| COc1cc2c(N)nc(N3CCN(C(=O)C4CCCO4)CC3)nc2cc1F (stereo not shown) [Co.18] | 1.3 | – | – | survival against sepsis [1]: significantly increased survival against sepsis |
| CCOCCOc1c(OC)c(OC)c(OCCOCC)c2c(N)nc(N3CCN(C(=O)C4CCCO4)CC3)nc12 (stereo not shown) [Co.25] | 2.7 | – | – | – |
| COc1c(OC)c(OC)c2c(N)nc(N3CCN(C(=O)C4CCCO4)CC3)nc2c1OC(C)=O (stereo not shown) [Co.26] | 3.2 | – | – | – |
| COc1c(OC)c(OC)c2c(N)nc(N3CCN(C(=O)C4CCCO4)CC3)nc2c1F (stereo not shown) [Co.28] | 1.2 | – | – | survival against sepsis [1]: significantly increased survival against sepsis |
| COc1c(OC)c(OC)c2c(N)nc(N3CCN(C(=O)C4CCCO4)CC3)nc2c1NC(C)=O (stereo not shown) [Co.29] | 2.6 | – | effective to reduce the infarct volume | survival against sepsis [1]: significantly increased survival against sepsis |
| CCCCc1c(OC)c(OC)c(OC)c2c(N)nc(N3CCN(C(=O)C4CCCO4)CC3)nc12 (stereo not shown) [Co.30] | 1.8 | – | – | – |
| CC1(C)S[C@@H]2[C@H](NC(=O)[C@H](N)c3ccccc3)C(=O)N2[C@H]1C(=O)O [ampicillin] | – | – | – | growth of E. coli (inhibition zones) (E. Coli O111:B4): shown to inhibit E. coli growth |

Second part, led by results:

| fold induction at 0.02 µg/mL (pgk1; [4]) | Compound | inhibition in vivo at 0.4 mg/kg [2] | infarct volume (% infarct volume = white area/total area) (cerebral thrombosis) | further results |
| --- | --- | --- | --- | --- |
| 1.2 | C#CCNc1nc(N2CCN(C(=O)C3CCCO3)CC2)nc2cc(OC)c(OC)cc12 (stereo not shown) [Co.6] | – | – | – |
| 2.1 | COc1cc2nc(N3CCN(C(=O)C4CCCO4)CC3)nc(N(C)CCOCCO)c2cc1OC (stereo not shown) [Co.11] | – | – | – |
| 2.6 | COc1cc2nc(N3CCN(C(=O)C4CCCO4)CC3)nc(Nc3ccccc3)c2cc1OC (stereo not shown) [Co.12] | – | – | – |
| 1.5 | COc1cc2nc(N3CCN(C(=O)C4CCCO4)CC3)nc(NC(=O)c3ccccc3)c2cc1OC (stereo not shown) [Co.14] | – | effective to reduce the infarct volume | – |
| 0.6 | Nc1nc(N2CCN(C(=O)C3CCCO3)CC2)nc2cc3c(cc12)OCO3 (stereo not shown) [Co.15] | – | – | – |
| 1.7 | CCOCCOc1cc2nc(N3CCN(C(=O)C4CCCO4)CC3)nc(N)c2cc1OCCOCC (stereo not shown) [Co.16] | 20 to 50% | effective to reduce the infarct volume | – |
| 1.4 | Nc1nc(N2CCN(C(=O)C3CCCO3)CC2)nc2cc(N3CCCCC3)c(C(F)(F)F)cc12 (stereo not shown) [Co.19] | 20 to 50% | effective to reduce the infarct volume | – |
| 1.9 | Nc1nc(N2CCN(C(=O)C3CCCO3)CC2)nc2cc3cccnc3cc12 (stereo not shown) [Co.20] | – | – | – |
| 2.4 | CCCc1cc2nc(N3CCN(C(=O)C4CCCO4)CC3)nc(N)c2cc1OC (stereo not shown) [Co.22] | – | – | – |
| 0.7 | COc1cc2c(N)nc(N3CCN(C(=O)C4CCCO4)CC3)nc2cc1NC(=O)c1ccccc1 (stereo not shown) [Co.23] | – | – | – |
| 0.4 | COc1cc2c(N)nc(N3CCN(C(=O)C4CCCO4)CC3)nc2cc1OC1CC=CCC1 (stereo not shown) [Co.24] | 20 to 50% | – | – |
| 0.9 | COc1c(OC)c(C(F)(F)F)c2c(N)nc(N3CCN(C(=O)C4CCCO4)CC3)nc2c1N1CCCCC1 (stereo not shown) [Co.27] | 20 to 50% | – | – |
| 0.6 | COc1c(OC)c(OC)c2c(N)nc(N3CCN(C(=O)C4CCCO4)CC3)nc2c1NC(=O)c1ccccc1 (stereo not shown) [Co.31] | – | – | – |
| 2.8 | COc1c(OC)c(OC)c2c(N)nc(N3CCN(C(=O)C4CCCO4)CC3)nc2c1OC1CC=CCC1 (stereo not shown) [Co.32] | 20 to 50% | effective to reduce the infarct volume | – |
